# Measured values reported in patent US9168247B2, “Beta carboline derivatives useful in the treatment of proliferative disorders” (FACULTES UNIVERSITAIRES NOTRE DAME DE LA PAIX, priority 2010, dated 2015).
# Like-named read-outs stand apart in the source and are kept apart here.
# Columns and labels:
# [1] = system: OE33 oesophageal cancer cells; assay: MTT test, overall cell growth, OE33; format: cell-based, human
# Protocol: (§1) MTT tests were performed in order to rapidly, i.e., within 5 days, measure the effect of the present compounds on the overall cell growth. The test measured the number of metabolically active living cells that were able to transform the yellow product 3-(4,5-dimethylthiazol-2-yl)-2,5-diphenyl tetrazolium bromide (herein referred as MTT) into the blue product formazan dye by mitochondrial reduction. The amount of formazan obtained at the end of the experiment, measured by means of a spectrophotometer, is directly proportional to the number of living cells. Optical density determination thus enabled a quantitative measurement of the effect of the investigated compounds as compared to the control condition (untreated cells) and/or to other reference compounds.
# (§2) Five human cancer cell lines set forth in Table 3 were used in the MTT tests. These cancer cell lines cover two histological cancer types including glioma (Hs683, T98G, U373), and oesophageal (OE21, OE33) cancers. The U373 cell line is apoptosis-resistant but autophagy-sensitive.
# (§3) To perform the assay, cells were allowed to grow in 96-well micro-wells with a flat bottom with an amount of 100 μl of cell suspension per well with 5,000 to 8,000 cells/well depending on the cell type used. Each cell line was seeded in its appropriate culture medium.
# (§4) The detailed experimental procedure was as follows: after a 24-hour period of incubation at 37° C., the culture medium was replaced by 100 μl of fresh medium in which the tested compound was previously dissolved, at the following molar concentrations: 1×10^−8 M, 5×10^−8 M, 1×10^−7 M, 5×10^−7 M, 1×10^−6 M, 5×10^−6 M, 1×10^−5 M, 5×10^−5 M and 1×10^−4 M. Each experiment was performed in sestuplicate (6 times).
# (§5) After 72 hours of incubation at 37° C. with (experimental conditions) or without (control condition) the compound to be tested, the medium was replaced by 100 μl MTT dissolved in RPMI (1640 without phenol red) at a concentration of 0.5 or 1 mg/ml. The micro-wells were subsequently incubated during 3 hours and a half at 37° C. and centrifuged at 1300 rpm during 10 minutes. MTT was removed and formazan crystals formed were dissolved in […]. The micro-wells were shaken for 5 minutes and read on a spectrophotometer at wavelengths of 570 nm (maximal formazan absorbance).
# (§6) For each experimental condition, the mean optical density was calculated, allowing the determination of the percentage of remaining living cells in comparison to the control.
# (§7) The origin of all the cell lines we used, along with their biological characteristics, and the validation procedures of the MTT colorimetric assay as employed here are fully detailed in Van Quaquebeke et al., 2005, J Med Chem 48:849-856; Ingrassia et al., 2009, J Med Chem 52:1100-1114; Mathieu et al., 2009, J Cell Mol Med, Feb. 20, 2009.
# [2] = system: OE21 oesophageal cancer cells; assay: MTT test, overall cell growth, OE21; format: cell-based, human
# Protocol: as §1, §2, §3, §4, §5, §6, §7
# U373 glioma cells = assay: MTT test, overall cell growth, U373; format: cell-based, human; settings: 72 hours of incubation
# Protocol: as §1, §2, §3, §4, §5, §6, §7
# [3] = system: human cancer cell lines (U373, T98G, Hs683, OE21, OE33); assay: MTT test, mean over the cancer cell lines; format: cell-based
# Protocol: as §1, §2, §3, §4, §5, §6, §7
# U373 cells = assay: Cellular imaging (videomicroscopy) of cultured U373 cells: antiproliferative class and global growth ratio; format: cell-based, human; parameters: key to Anti proliferative class / anti-proliferative class-GGR: class I: actually cytostatic for 3 days (<10% of cell death at the 3rd day); class II: cyctostatic but becomes cytotoxic with <10% cell death on the 2nd day, and >20% of cell death on the 3rd day; class III: cytostatic but rapidly becomes cytotoxic with <10% cell death on the 1st day, >20% of cell death on the 2nd day and >50% of cell death on the 3rd day; class IV: cytotoxic (>50% of cell death on the first day); settings: for global growth ratio (GGR): GG treated cells/GG control cells, 72 h after drug addition, drug at its IC50 (MTT-test determined); for Anti proliferative class: cellular imaging of cultured U373 cells over three consecutive days
# From the text: The effects of the di- and tri-substituted beta-carboline derivatives as described herein can also be determined on cell proliferation, migration and morphology by means of a cellular imaging approach (Debeir et al., Cytometry 60:29-40, 2004; Debeir et al., IEEE Trans Med Imaging 24:697-711, 2005) either in, e.g., the human U373-MG glioma cell line, which is apoptosis-resistant but autophagy-sensitive (Lefranc F et al., Neurosurgery 2008) or in, e.g., the human A549 non-small-cell-lung cancer cell line, which is apoptosis-resistant and autophagy-resistant (Mijatovic T et al., Neoplasia 2006, May; 8(5):402-12).
# […] The experiments are conducted in quadruplicates.
# The behaviour of the cells, in terms of morphology, growth and death are thus investigated. The effect on the overall growth is measured by counting the number of cells on the first (0 h) and the last image (72 h) of each film. The global growth ratio (GGR) is then deduced by dividing the number of cells on the last image by the number of cells on the first image. The ratio GGRtreated cells/GGRcontrol cells is further calculated thereby providing a value that describes the effect of compounds of the present invention on the overall cell growth.
# The methodology is fully described and validated in Debeir et al., 2008, Exp Cell Res 314:2985-2998 and Mathieu et al., 2009, J Cell Mol Med, Feb. 20, 2009.
# Hs683 glioma cells = assay: MTT test, overall cell growth, Hs683; format: cell-based, human
# Protocol: as §1, §2, §3, §4, §5, §6, §7
# T98G glioma cells = assay: MTT test, overall cell growth, T98G; format: cell-based, human; settings: 72 hours of incubation
# Protocol: as §1, §2, §3, §4, §5, §6, §7
# [4] = Homo sapiens, OE33, 72 hours of incubation
# [5] = Homo sapiens, OE21, 72 hours of incubation
# [6] = Homo sapiens, mean over the cancer cell lines, MTT test, read-out: IC50 Mean ± SEM
# [7] = Homo sapiens, Hs 683, 72 hours of incubation
# [8] = mean over the cancer cell lines, MTT test, read-out: IC50 Mean ± SEM
SMILES,"IC50 [1, 4]","IC50 [2, 5]","IC50 (U373 glioma cells; Homo sapiens, U373 MG)","IC50 [3, 6]",global growth ratio (GGR) (U373 cells),Anti proliferative class (U373 cells),IC50 (Hs683 glioma cells; [7]),"IC50 (T98G glioma cells; Homo sapiens, T98G)","IC50 ([3]; Homo sapiens, Table 4, mean over cell lines, read-out: IC50 μM growth inhibition (MTT test))",IC50 ([1]; 72 hours of incubation),IC50 ([2]; 72 hours of incubation),IC50 (U373 glioma cells),"IC50 [3, 8]",IC50 (Hs683 glioma cells; 72 hours of incubation),IC50 (T98G glioma cells)
"Cc1nccc2c3ccc(OCc4cccc(F)c4)cc3n(Cc3cccc(F)c3)c12 [CV5, 1-methyl-7-(3-fluorobenzyloxy)-9-(3-fluorobenzyl)-β-carboline]",16 ± 2 µM,7.9 ± 0.2 µM,0.4 ± 0.06 µM,14 ± 5 µM,0.9,I (class I: actually cytostatic for 3 days (<10% of cell death at the 3rd day)),17.5 ± 0.9 µM,27 ± 1 µM,–,–,–,–,–,–,–
"Cc1nccc2c3ccc(OCc4ccc(F)cc4)cc3n(Cc3ccc(F)cc3)c12 [CV11, 1-methyl-7-(4-fluorobenzyloxy)-9-(4-fluorobenzyl)-β-carboline]",25 ± 2 µM,15 ± 2 µM,30 ± 1 µM,20 ± 3 µM,0.2,III,17 ± 2 µM,14 ± 2 µM,–,–,–,–,–,–,–
"Cc1nccc2c3ccc(OCC4CCCCC4)cc3n(CC3CCCCC3)c12 [CV12, 1-methyl-7-cyclohexylmethyloxy-9-cyclohexylmethyl-β-carboline]",15 ± 3 µM,17 ± 2 µM,30.7 ± 0.8 µM,25 ± 4 µM,0.2,II,30 ± 2 µM,32 ± 1 µM,25 µM,–,–,–,–,–,–
"Cc1c2c(cc[n+]1Cc1ccccc1)c1ccc(OCc3cccc(F)c3)cc1n2Cc1cccc(F)c1.[Br-] [CV16, 1-methyl-2-benzyl-7-(3-fluorobenzyl)oxy-9-(3-fluorobenzyl)43-carbolin-2-ium bromide]",–,–,–,–,0.4,I (class I: actually cytostatic for 3 days (<10% of cell death at the 3rd day)),–,–,–,2.9 ± 0.1 µM,0.4 ± 0.1 µM,0.82 ± 0.08 µM,1.6 ± 0.5 µM,2.8 ± 0.4 µM,0.97 ± 0.02 µM
"Cc1c2c(cc[n+]1Cc1ccccc1F)c1ccc(OCc3ccc(F)cc3)cc1n2Cc1ccc(F)cc1.[Br-] [CV25, 1-methyl-2-(2-fluorobenzyl-7-(4-fluorobenzyl)oxy-9-(4-fluorobenzyl)-β-carbolin-2-ium bromide]",–,–,–,–,–,–,–,–,–,1.6 ± 0.2 µM,1.6 ± 0.3 µM,0.46 ± 0.08 µM,1.1 ± 0.3 µM,1.2 ± 0.4 µM,0.43 ± 0.02 µM
Cc1c2c(cc[n+]1Cc1ccccc1F)c1ccc(OCc3ccc(F)cc3)cc1n2Cc1ccc(F)cc1.[Br-] [CV25],–,–,–,–,0.4,I (class I: actually cytostatic for 3 days (<10% of cell death at the 3rd day)),–,–,–,–,–,–,–,–,–
Cc1c2c(cc[n+]1CC(=O)c1ccccc1)c1ccc(OCc3ccccc3)cc1n2Cc1ccccc1 [CV52],–,–,–,–,–,–,–,–,–,–,17 ± 2 µM,22 ± 2 µM,21 ± 2 µM,26 ± 3 µM,19 ± 2 µM
"CCCCCC[n+]1ccc2c3ccc(OCc4ccccc4)cc3n(Cc3ccccc3)c2c1C [CV53, 1-methyl-2-hexyl-7-benzyloxy-9-benzyl-β-carbolin-2-ium bromide]",–,1.9 ± 0.3 µM,0.66 ± 0.09 µM,1.5 ± 0.6 µM,–,–,0.6 ± 0.1 µM,3.1 ± 0.5 µM,–,–,–,–,–,–,–
"CCC[n+]1ccc2c3ccc(OCc4ccccc4)cc3n(Cc3ccccc3)c2c1C [CV56, 1-methyl-2-propyl-7-benzyloxy-9-benzyl-β-carbolin-2-ium bromide]",–,3.4 ± 0.8 µM,2.5 ± 0.3 µM,5 ± 2 µM,–,–,0.6 ± 0.1 µM,11 ± 1 µM,–,–,–,–,–,–,–
Cc1c2c(cc[n+]1CCO)c1ccc(OCc3ccccc3)cc1n2Cc1ccccc1 [PL1],–,–,–,–,–,–,–,–,–,–,25 ± 4 µM,9 ± 2 µM,32 ± 11 µM,31 ± 3 µM,61 ± 6 µM
"Cc1c2c(cc[n+]1CCC(C)C)c1ccc(OCc3ccccc3)cc1n2Cc1ccccc1 [PL2, 1-methyl-2-(3-methylbutyl)-7-benzyloxy-9-benzyl-β-carbolin-2-ium bromide]",–,0.5 ± 0.09 µM,0.39 ± 0.01 µM,0.6 ± 0.2 µM,–,–,0.37 ± 0.03 µM,1.2 ± 0.2 µM,–,–,–,–,–,–,–
"Cc1c2c(cc[n+]1CCc1ccccc1)c1ccc(OCc3ccccc3)cc1n2Cc1ccccc1 [PL4, 1-methyl-2-phenethyl-7-benzyloxy-9-benzyl-β-carbolin-2-ium bromide]",–,2.4 ± 0.3 µM,2 ± 0.3 µM,2.3 ± 0.1 µM,–,–,2.31 ± 0.09 µM,2.4 ± 0.4 µM,–,–,–,–,–,–,–
Cc1c2c(cc[n+]1CCO)c1ccc(OCCC(C)C)cc1n2CCC(C)C [PL11],–,–,–,–,–,–,–,–,–,–,7.6 ± 0.3 µM,2.5 ± 0.3 µM,4 ± 1 µM,4 ± 0.3 µM,2.9 ± 0.4 µM
Cc1c2c(cc[n+]1CCC(C)C)c1ccc(OCCC(C)C)cc1n2CCC(C)C [PL12],–,–,–,–,–,–,–,–,–,–,0.48 ± 0.04 µM,0.22 ± 0.03 µM,0.34 ± 0.06 µM,0.26 ± 0.01 µM,0.41 ± 0.01 µM
Cc1c2c(cc[n+]1Cc1ccccc1)c1ccc(OCCC(C)C)cc1n2CCC(C)C [PL13],–,–,–,–,–,–,–,–,–,–,3.7 ± 0.1 µM,3.4 ± 0.1 µM,3.4 ± 0.1 µM,3.1 ± 0.1 µM,3.5 ± 0.1 µM
"COc1ccc2c(c1)[nH]c1c(C)nccc12 [harmine, reference compound]",18 ± 1 µM,32 ± 2 µM,32 ± 2 µM,28 ± 3 µM,–,I (class I: actually cytostatic for 3 days (<10% of cell death at the 3rd day)),–,24 ± 2 µM,–,–,–,–,–,–,–
